Results on 1 compound are retold here after ChEMBL document CHEMBL3739393, “Synthesis, Structural Characterization, and Bioactivity of the Stable Peptide RCB-1 from Ricinus communis” (J Nat Prod, 2015).

Positions of bridges follow the written chain, without caps; N, C: chain ends. Residues, ends and D or L forms follow the SMILES beside them.

For data set [1], the system named is Staphylococcus aureus. In words: Antibacterial activity against Staphylococcus aureus ATCC 29213 incubated for 5 hrs. The data set is classed as functional, organism-based. As to conditions: ATCC 29213, 5 h.
Data set [2] has as its system Escherichia coli. In words: Antibacterial activity against Escherichia coli ATCC 25922 incubated for 5 hrs. The format is functional, organism-based. As to conditions: ATCC 25922, 5 h.
Data set [3] concerns Pseudomonas aeruginosa. The data set is described as follows: Antibacterial activity against Pseudomonas aeruginosa ATCC 27853 incubated for 5 hrs. The data set is classed as functional, organism-based. The settings on record: ATCC 27853, 5 h.
In data set [4] the test system is Candida albicans. In words: Antifungal activity against Candida albicans ATCC 90028 incubated for 5 hrs. The data set is classed as functional, organism-based. As to conditions: ATCC 90028, 5 h.
Data set [5] concerns Pectobacterium carotovorum. The data set is described as follows: Antibacterial activity against Erwinia carotovora incubated for 5 hrs. The format is functional, organism-based.
Data set [6] has as its system Erwinia amylovora. In words: Antibacterial activity against Erwinia amylovora incubated for 5 hrs. The data set is classed as functional, organism-based.
In data set [7] the test system is Aspergillus fumigatus. The data set is described as follows: Antifungal activity against Aspergillus fumigatus incubated for 5 hrs. The format is functional, organism-based.
Data set [8] can be described thus: Cytotoxicity against human U937/GTB cells up to 50 uM by fluorescein diacetate-based fluorometric microculture cytotoxicity assay. The format is cell-based. As to conditions: u-937/gtb.
Data set [9] is described as follows: Stability in human serum assessed as compound remaining after 24 hrs at 37 degC by LC/MS analysis. The settings on record: read-out: Stability. The format is ADME.

For the compound `CSCC[C@@H]1NC(=O)[C@H](C(C)C)NC(=O)[C@H](CC(C)C)NC(=O)[C@@H]2CSSC[C@@H](C(=O)N[C@@H](CO)C(=O)O)NC(=O)[C@H](Cc3ccccc3)NC(=O)[C@H](CCCCN)NC(=O)[C@H](C(C)C)NC(=O)[C@H](CSSC[C@H](NC(=O)[C@H](CCCNC(=N)N)NC(=O)[C@H](C)N)C(=O)N2)NC(=O)[C@H](C)NC(=O)[C@H](Cc2ccccc2)NC(=O)[C@@H]2CCCN2C(=O)[C@@H]2CCCN2C(=O)[C@H](C(C)C)NC(=O)[C@@H]2CCCN2C1=O` (H-ARCCLVMPVPPFACVKFCS-OH; disulfide 3-14, 4-18), the EC50 was above 160 µM in data set [1]; above 160 µM in data set [2]; 27 µM in [3]; above 160 µM in data set [4]; above 160 µM in data set [5]; above 160 µM in [6]. This compound also registered an EC50 in data set [7] above 160 µM. In addition, the Activity result in [8] was “Non-toxic”. The remaining at 24 h in [9] was above 95%.
